# Test results published in patent US20030004123A1, “Targeted gene transfer using G protein coupled receptors” (priority 1997, published 2003).
# Tests used:
# [1] = test system: WD human airway epithelial cells; test: Cl- secretory response of WD human airway epithelial cultures to lumenal agonists; format: cell-based; details: agonist at 10^−4M, FIG. 3
# Text: Epithelial cells are derived from CF and non-CF nasal and bronchial airway epithelia using procedures similar to those described by Gray et al. 1996. Am. J Respir. Cell Mol. Biol. 14, 104-112. Resected nasal turbinates or portions of mainstem/lobar bronchi representing excess donor tissue are obtained at the time of lung transplantation under the auspices of the University of North Carolina at Chapel Hill Institutional Committee on the Protection of the Rights of Human Subjects. Epithelial cells are removed from the specimens by protease XIV digestion as described (Wu, R., et al., 1985. Am. Rev. Respir. Dis. 132, 311-320), but omitting the filtration step. 1-2×10^6 cells are plated per 100 mm tissue culture dish in modified LHC9 medium. Lechner, J. F. and Laveck, M. A. 1985. J. Tiss. Cult. Meth. 9, 43-48. The modifications include increasing the EGF concentration to 25 ng/ml, adjusting the retinoic acid concentration to 5×10^−8 M, and supplementation with 0.5 mg/ml bovine serum albumin and 0.8% bovine pituitary extract. At approximately 75% confluence, the cells are harvested by trypsinization and passage 1 cells are plated at a density of 2.5×10^5 cells on Transwell-Col inserts (Coming-Costar, 24 mm diameter, 0.4 μm pore size), in modified medium. The medium is similar to the supplemented LHC9 except that a 50:50 mixture of LHC Basal (Biofluids) and DMEM-H is used as the base, amphotericin and gentamycin are omitted and the EGF concentration is reduced to 0.5 ng/ml. After the cells grow to confluence (4-6 days) the apical surface of the cultures are given an air-liquid interface for another 25-30 days until use.
# Investigations were carried out to identify which 7-TM receptors, if any, are localized in the apical membrane of WD human airway epithelial cells. Cultures of WD cells were exposed to NECA (an A2b receptor agonist), isoproterenol, bradykinin, or ATP (all at 10^−4M), and Cl-secretory responsiveness was determined.
# P2Y2 receptors = biological target: T1, P2Y2 receptors (Homo sapiens, UniProt P41231); test: Inositol phosphate formation in astrocytoma cells expressing P2Y2 receptors; format: cell-based; details: FIG. 9A
# T1 construct: expressed in transfected cells; host or cells: astrocytoma cells
# T1 sequence (P41231 whole entry): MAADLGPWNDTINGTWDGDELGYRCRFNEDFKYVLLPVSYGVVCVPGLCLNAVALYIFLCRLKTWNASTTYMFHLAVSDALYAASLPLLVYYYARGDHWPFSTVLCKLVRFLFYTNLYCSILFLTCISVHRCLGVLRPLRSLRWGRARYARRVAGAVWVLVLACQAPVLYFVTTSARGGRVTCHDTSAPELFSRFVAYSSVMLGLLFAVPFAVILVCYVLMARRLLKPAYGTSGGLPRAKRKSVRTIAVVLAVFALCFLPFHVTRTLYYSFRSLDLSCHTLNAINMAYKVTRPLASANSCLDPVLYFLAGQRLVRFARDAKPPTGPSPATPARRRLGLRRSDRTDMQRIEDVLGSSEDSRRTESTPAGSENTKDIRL
# Text: FIG. 9A is a graphical representation of a comparison of agonist potency of U2P4 and UTP in astrocytoma cells expressing P2Y2 receptors.
# [2] = Metabolic stability in cystic fibrosis sputum; format: in vitro ADME; details: compared with UTP, FIG. 9B
# Text: FIG. 9B is a graphical representation of the metabolic stability of U2P4 compared with UTP in cystic fibrosis sputum.
# Biologically active analogs of UTP that are more resistant to biological hydrolysis than UTP have been developed for linkage to vectors. The dinucleotide U2P4 has useful properties.
# [3] = biological target: T2, HA-tagged human P2Y2 receptor (Homo sapiens, UniProt P41231); test: Agonist-induced internalization of HA-P2Y2 receptor in A9 cells; format: cell-based; details: ATPγS 10^−4 M, within 45 minutes
# T2 construct: expressed in transfected cells; host or cells: A9 cells (retroviral gene transfer)
# T2 sequence (P41231 whole entry): as above
# Text: To test the concept that the P2Y2 receptor is a candidate receptor for targeting based on the ability to bind and internalize an exogenous ligand, we have obtained CHO and A9 cells (both of which are not transducible by AdV) that express the HA-tagged human P2Y2 receptor (HA tag on the extracellular N-terminus) by retroviral gene transfer. HA-P2Y2 receptor expressing A9 cells, but not control cells, stain with fluorescently labeled anti-HA Abs under resting conditions. With agonist [ATPγS (10^−4 M)] exposure, approximately 80% of the receptors are internalized within 45 minutes. The internalization of P2Y2 receptor is mediated via coated pits.
# [4] = biological target: T3, human P2Y2-receptor (HA epitope-tag) in 1321N1 human astrocytoma cells (Homo sapiens, UniProt P41231); test: Internalization of P2Y2-HA receptor in astrocytoma cells (immunofluorescence, ELISA); format: cell-based; details: 30 min ATPγS exposure
# T3 construct: expressed in transfected cells; host or cells: 1321N1 human astrocytoma cells
# T3 sequence (P41231 whole entry): as above
# [5] = biological target: T3, human P2Y2-receptor (HA epitope-tag) in 1321N1 human astrocytoma cells; details: ELISA, ATPγS exposures of 1 hr; cited from earlier work
smiles,measurement,setting,value
CC(C)NCC(O)c1ccc(O)c(O)c1 (centres unmarked) [isoproterenol],Cl-secretory responsiveness,[1],a Cl-secretory response was detected
O=c1ccn([C@@H]2O[C@H](COP(=O)([O-])OP(=O)([O-])OP(=O)([O-])OP(=O)([O-])OC[C@H]3O[C@@H](n4ccc(=O)[nH]c4=O)[C@H](O)[C@@H]3O)[C@@H](O)[C@H]2O)c(=O)[nH]1.[Na+].[Na+].[Na+].[Na+] [Example U2P4],agonist potency relative to UTP (inositol phosphate release),P2Y2 receptors,equipotent with UTP
same,hydrolysis in cystic fibrosis (CF) sputum,[2],resistant to hydrolysis
CCNC(=O)[C@H]1O[C@@H](n2cnc3c(N)ncnc32)[C@H](O)[C@@H]1O [NECA],Cl-secretory responsiveness,[1],a Cl-secretory response was detected
Nc1ncnc2c1ncn2[C@@H]1O[C@H](COP(=O)(O)OP(=O)(O)OP(O)(O)=S)[C@@H](O)[C@H]1O [ATPγS],receptors internalized,[3],approximately 80%
same,plasma membrane immunoreactivity of P2Y2-HA receptor,[4],clear loss of immunoreactivity from the plasma membrane
same,internalization efficiency (loss of receptor sites),[5],80%
Nc1ncnc2c1ncn2[C@@H]1O[C@H](COP(=O)(O)OP(=O)(O)OP(=O)(O)O)[C@@H](O)[C@H]1O [ATP],Cl-secretory responsiveness,[1],the greatest response
